# Test results as given in US20160341718A1, “METHODS FOR TESTING T CELL PRIMING EFFICACY IN A SUBJECT” (priority 2014, published 2016).
# Test system: naïve ELA-specific CD8+ T cell precursors in HLA-A2+ PBMCs
# Assay: In vitro priming of ELA-specific CD8+ T cells from unfractionated PBMCs, ELA/HLA-A2 tetramer enumeration and CD45RA/CCR7 phenotype
# Assay type: cell-based, human
# Details: day 10 after priming of HLA-A2+ PBMCs with ELA-20 1 μM
# Description: Naïve precursors specific for the HLA-A*02:01-restricted epitope [sequence] […] The frequency, phenotype and functional profiling of ELA-specific CD8+ T cells were typically determined on day 10 or 11. Purified naïve and memory CD8+ T cell subsets for priming experiments were obtained using T Cell Enrichment Column Kits (R&D Systems).
# ELA-specific CD8^+ T cells were quantified by flow cytometry using fluorochrome-labeled ELA/HLA-A*02:01 tetramers (FIG. 2A). […] For this purpose, we mixed purified naïve or memory CD8^+ T cells separately with autologous CD8-depleted PBMCs to initiate priming (FIG. 2B).
# Moreover, to ensure optimal immunogenicity, we used the heteroclitic sequence [sequence]
substance,measurement,value
lipopolysaccharide [TLR4L],magnitude of primed/expanded ELA tetramer+ CD8+ T cells,only marginal effects
